The term inhibition denotes the change of the read-out against control, counted positive when it falls.

The test system of this experiment is CXCL10 production. As to the kind of experiment: CXCL10 production inhibition test. To be noted: Endothelial cell; test compound 0.1 μmol/L; human umbilical vein-derived endothelial cells; TNFα 10 ng/mL; supernatant 72 hours after stimulation; ELISA; read-out: Rate of inhibition of CXCL10 production. The format is cell-based. The method, then: (CXCL10 Production Inhibition Test)
0.5×10^4 or 1×10^4 human umbilical vein-derived endothelial cells were suspended in 100 μL of an EGM-2 BulletKit medium (without GA) or a Medium-200 medium supplemented with an EGM-2 SingleQuots kit (without GA), inoculated to a 96-well plate and cultured overnight. 100 μL of a solution of each test compound diluted with the same medium as that used in the inoculation was added to the cultured cells (final concentration of the test compound: 0.1 μmol/L). 1 hour thereafter, TNFα was added thereto at a final concentration of 10 ng/mL. 72 hours after the stimulation, the supernatant was recovered, and the amount of CXCL10 produced in the culture supernatant was determined using an ELISA kit (Peprotech, 900-109).
The rate of inhibition was calculated according to the following expression: Rate of inhibition (%)=100−(Amount of CXCL10 produced in the presence of the test compound/Amount of CXCL10 produced in the absence of the test compound)×100
For `CCn1c(=O)cc(C2CC2)c2cc(N(C)C(=O)c3ccccc3)ccc21` [Example 2, N-(4-cyclopropyl-1-ethyl-2-oxo-1,2-dihydroquinolin-6-yl)-N-methylbenzamide], the inhibition at 0.1 µM is not below 50%.

As for `CCn1c(=O)cc(N2CCOCC2)c2cc(-n3c(-c4ccccc4)c[nH]c3=O)ccc21` [Example 3, 1-ethyl-4-(morpholin-4-yl)-6-(2-oxo-5-phenyl-2,3-dihydro-1H-imidazol-1-yl)quinolin-2(1H)-one], the inhibition at 0.1 µM is not below 50%.

In the case of `CCN1CCC(c2cc(=O)n(CC)c3ccc(C(=O)N(C)c4ccccc4)cc23)CC1` [Example 8, 1-ethyl-4-(1-ethylpiperidin-4-yl)-N-methyl-2-oxo-N-phenyl-1,2-dihydroquinoline-6-carboxamide], the inhibition at 0.1 µM is not below 50%.

For the molecule `CCn1c(=O)cc(C2CCN(C)CC2)c2cc(C(=O)N3CCCc4ccccc43)ccc21` [Example 11, 6-(3,4-dihydroquinolin-1(2H)-ylcarbonyl)-1-ethyl-4-(1-methylpiperidin-4-yl)quinolin-2(1H)-one], the inhibition at 0.1 µM was not below 50%.

In the case of `CCn1c(=O)cc(C2CCN(C)CC2)c2cc(C(=O)N(C)c3ccc(C)cc3)ccc21` [Example 14, 1-ethyl-N-methyl-N-(4-methylphenyl)-4-(1-methylpiperidin-4-yl)-2-oxo-1,2-dihydroquinoline-6-carboxamide], the inhibition at 0.1 µM is not below 50%.

In the case of `CCn1c(=O)cc(C(C)C)c2cc(N(C)C(=O)c3ccc(Cl)cc3)ccc21` [Example 16, 4-chloro-N-(1-ethyl-2-oxo-4-(propan-2-yl)-1,2-dihydroquinolin-6-yl)-N-methylbenzamide], the inhibition at 0.1 µM was not below 50%.

Turning to `CCn1c(=O)cc(C2CCN(C)CC2)c2cc(C(=O)N(C)c3ccc4c(c3)CCC4)ccc21` [Example 17, N-(2,3-dihydro-1H-inden-5-yl)-1-ethyl-N-methyl-4-(1-methylpiperidin-4-yl)-2-oxo-1,2-dihydroquinoline-6-carboxamide], the inhibition at 0.1 µM is not below 50%.

For the molecule `CCn1c(=O)cc(N2CCOCC2)c2cc(-n3c(-c4ccc(Cl)cc4)c[nH]c3=O)ccc21` [Example 245, 6-(5-(4-chlorophenyl)-2-oxo-2,3-dihydro-1H-imidazol-1-yl)-1-ethyl-4-(morpholin-4-yl)quinolin-2(1H)-one], the inhibition at 0.1 µM is not below 50%.

For `CCn1c(=O)cc(N2CCOCC2)c2cc(-n3c(-c4ccc(Cl)cc4)cn(C)c3=O)ccc21` [Example 246, 6-(5-(4-chlorophenyl)-3-methyl-2-oxo-2,3-dihydro-1H-imidazol-1-yl)-1-ethyl-4-(morpholin-4-yl)quinolin-2(1H)-one], the inhibition at 0.1 µM was not below 50%.

Turning to `CCn1c(=O)cc(N2CCOCC2)c2cc(-n3c(-c4ccccc4)cn(C(C)C)c3=O)ccc21` [Example 247, 1-ethyl-4-(morpholin-4-yl)-6-(2-oxo-5-phenyl-3-(propan-2-yl)-2,3-dihydro-1H-imidazol-1-yl)quinolin-2(1H)-one], the inhibition at 0.1 µM is not below 50%.

As to `CCn1c(=O)cc(C2CC2)c2cc(-n3c(=O)[nH]c(=O)n3-c3ccccc3)ccc21` [Example 248, 1-(4-cyclopropyl-1-ethyl-2-oxo-1,2-dihydroquinolin-6-yl)-2-phenyl-1,2,4-triazolidine-3,5-dione], the inhibition at 0.1 µM is not below 50%.

Turning to `CCn1c(=O)cc(N2CCOCC2)c2cc(N(C)C(=O)c3ccc(Cl)cc3)ccc21` [Example 250, 4-chloro-N-(1-ethyl-4-(morpholin-4-yl)-2-oxo-1,2-dihydroquinolin-6-yl)-N-methylbenzamide], the inhibition at 0.1 µM is not below 50%.

In the case of `CCn1c(=O)cc(C2CC2)c2cc(-c3nc(C)nn3-c3ccccc3)ccc21` [Example 252], the inhibition at 0.1 µM was not below 50%.

Consider `CCn1c(=O)cc(N2CCOCC2)c2cc(N3C(=O)CC[C@H]3c3ccccc3)ccc21` [Example 253, 1-ethyl-4-(morpholin-4-yl)-6-((5S)-2-oxo-5-phenylpyrrolidin-1-yl)quinolin-2(1H)-one], for which the inhibition at 0.1 µM is not below 50%.

Take `CCn1c(=O)cc(C2CC2)c2cc(N3C(=O)CC[C@H]3c3ccccc3)ccc21` [Example 254, 4-cyclopropyl-1-ethyl-6-((5S)-2-oxo-5-phenylpyrrolidin-1-yl)quinolin-2(1H)-one]: the inhibition at 0.1 µM is not below 50%.

In the case of `CCn1c(=O)cc(N2CCOCC2)c2cc(-n3ccnc3-c3ccccc3)ccc21` [Example 255], the inhibition at 0.1 µM was not below 50%.

With `CCn1c(=O)cc(N2CCOCC2)c2cc(-n3cc(C)nc3-c3ccccc3)ccc21` [Example 256, 1-ethyl-6-(4-methyl-2-phenyl-1H-imidazol-1-yl)-4-(morpholin-4-yl)quinolin-2(1H)-one], the inhibition at 0.1 µM was not below 50%.

`CCn1c(=O)cc(N2CCOCC2)c2cc(-c3nccn3-c3ccccc3)ccc21` [Example 257, 1-ethyl-4-(morpholin-4-yl)-6-(1-phenyl-1H-imidazol-2-yl)quinolin-2(1H)-one]: the inhibition at 0.1 µM is not below 50%.

With `CCn1c(=O)cc(N2CCOCC2)c2cc(-c3ccccc3-c3ccccc3)ccc21` [Example 258, 6-(biphenyl-2-yl)-1-ethyl-4-(morpholin-4-yl)quinolin-2(1H)-one], the inhibition at 0.1 µM is not below 50%.

`CCn1c(=O)cc(N2CCOCC2)c2cc(-n3c(-c4ccccc4)cn(CCN4CCCCC4)c3=O)ccc21` [Example 259, 1-ethyl-4-(morpholin-4-yl)-6-(2-oxo-5-phenyl-3-(2-(piperidin-1-yl)ethyl)-2,3-dihydro-1H-imidazol-1-yl)quinolin-2(1H)-one]: the inhibition at 0.1 µM is not below 50%.

With `CCn1c(=O)cc(N2CCOCC2)c2cc(-n3c(-c4ccccc4)cn(CCN4CCOCC4)c3=O)ccc21` [Example 260, 1-ethyl-4-(morpholin-4-yl)-6-(3-(2-(morpholin-4-yl)ethyl)-2-oxo-5-phenyl-2,3-dihydro-1H-imidazol-1-yl)quinolin-2(1H)-one], the inhibition at 0.1 µM is not below 50%.

For the molecule `CCn1c(=O)cc(N2CCOCC2)c2cc(-n3c(-c4ccccc4)cn(CCN(C)C)c3=O)ccc21` [Example 261, 6-(3-(2-(dimethylamino)ethyl)-2-oxo-5-phenyl-2,3-dihydro-1H-imidazol-1-yl)-1-ethyl-4-(morpholin-4-yl)quinolin-2(1H)-one], the inhibition at 0.1 µM is not below 50%.

Regarding `CCn1c(=O)cc(N2CCOCC2)c2cc(-n3c(-c4ccccc4)cn(CCO)c3=O)ccc21` [Example 262, 1-ethyl-6-(3-(2-hydroxyethyl)-2-oxo-5-phenyl-2,3-dihydro-1H-imidazol-1-yl)-4-(morpholin-4-yl) quinolin-2(1H)-one], the inhibition at 0.1 µM was not below 50%.

As for `CCn1c(=O)cc(N2CCOCC2)c2cc(-n3c(-c4ccccc4)cn(CCOC)c3=O)ccc21` [Example 263, 1-ethyl-6-(3-(2-methoxyethyl)-2-oxo-5-phenyl-2,3-dihydro-1H-imidazol-1-yl)-4-(morpholin-4-yl) quinolin-2(1H)-one], the inhibition at 0.1 µM was not below 50%.

Turning to `CCCCn1cc(-c2ccccc2)n(-c2ccc3c(c2)c(N2CCOCC2)cc(=O)n3CC)c1=O` [Example 264, 6-(3-butyl-2-oxo-5-pheynyl-2,3-dihydro-1H-imidazazol-1-yl)-1-ethyl-4-(morpholin-4-yl)quinolin-2(1H)-one], the inhibition at 0.1 µM is not below 50%.

Regarding `CCCn1cc(-c2ccccc2)n(-c2ccc3c(c2)c(N2CCOCC2)cc(=O)n3CC)c1=O` [Example 265, 1-ethyl-4-(morpholin-4-yl)-6-(2-oxo-5-phenyl-3-propyl-2,3-dihydro-1H-imidazol-1-yl)quinolin-2(1H)-one], the inhibition at 0.1 µM was not below 50%.

In the case of `CCn1cc(-c2ccccc2)n(-c2ccc3c(c2)c(N2CCOCC2)cc(=O)n3CC)c1=O` [Example 266, 1-ethyl-6-(3-ethyl-2-oxo-5-phenyl-2,3-dihydro-1H-imidazol-1-yl)-4-(morpholin-4-yl)quinolin-2(1H)-one], the inhibition at 0.1 µM is not below 50%.

Take `CCn1c(=O)cc(C2CC2)c2cc(-n3c(-c4ccc(C(F)(F)F)cc4)cn(C)c3=O)ccc21` [Example 267, 4-cyclopropyl-1-ethyl-6-(3-methyl-2-oxo-5-(4-(trifluoromethyl)phenyl)-2,3-dihydro-1H-imidazol-1-yl)quinolin-2(1H)-one]: the inhibition at 0.1 µM is not below 50%.

In the case of `CCn1c(=O)cc(C2CC2)c2cc(-n3c(-c4ccc(C(F)(F)F)cc4)c[nH]c3=O)ccc21` [Example 268, 4-cyclopropyl-1-ethyl-6-(2-oxo-5-(4-(trifluoromethyl)phenyl)-2,3-dihydro-1H-imidazol-1-yl)quinolin-2(1H)-one], the inhibition at 0.1 µM was not below 50%.

For `CCn1c(=O)cc(C2CC2)c2cc(-n3c(-c4ccc(Cl)cc4)cn(C)c3=O)ccc21` [Example 269, 6-(5-(4-chlorophenyl)-3-methyl-2-oxo-2,3-dihydro-1H-imidazol-1-yl)-4-cyclopropyl-1-ethylquinolin-2(1H)-one], the inhibition at 0.1 µM was not below 50%.

Regarding `CCn1c(=O)cc(N2CCOCC2)c2cc(-n3c(-c4ccc(C(F)(F)F)cc4)cn(C)c3=O)ccc21` [Example 270, 1-ethyl-6-(3-methyl-2-oxo-5-(4-(trifluoromethyl)phenyl)-2,3-dihydro-1H-imidazol-1-yl)-4-(morpholin-4-yl)quinolin-2(1H)-one], the inhibition at 0.1 µM is not below 50%.

Regarding `CCn1c(=O)cc(C2CC2)c2cc(-n3c(-c4ccc(Cl)cc4)c[nH]c3=O)ccc21` [Example 271, 6-(5-(4-chlorophenyl)-2-oxo-2,3-dihydro-1H-imidazol-1-yl)-cyclopropyl-1-ethylquinolin-2(1H)-one], the inhibition at 0.1 µM is not below 50%.

These data come from patent US10696637B2, “Nitrogen-containing heterocyclic compound” (FUJIFILM Corporation, priority 2015, dated 2020).
